# Data reported in patent US10639319B2, “Human milk oligosaccharides for preventing injury and/or promoting healing of the gastrointestinal tract” (ABBOTT LABORATORIES, priority 2011, dated 2020).
# System: infant fecal bacteria
# Assay: In vitro substrate fermentation model with infant fecal inocula, isobutyrate (BCFA) analysis (Example 78)
# Format: cell-based
# Conditions: for greater concentration of isobutyrate than any of the other substrates: infant fecal inoculum cultures, P<0.05
substance,measurement,setting,value
2′-α-L-Fucopyranosyl-D-Lactose [2′-FL],fermentation by infant fecal bacteria,in vitro fermentation model,readily fermented
same,production of isobutyrate as compared to other substrates,in vitro fermentation model,enhances
same,greater concentration of isobutyrate than any of the other substrates,6 hours,approximately 5 fold
same,greater concentration of isobutyrate than any of the other substrates,12 hours,~10 fold
